Starred links: 1 amine or outer side, 2 acyl side, 3 side chain; linkers in the order of their positions; H or OH if unused. Positions of bridges follow the written chain, without caps; N, C: chain ends. Non-standard residues stand in square brackets, D forms with d. Residues, ends and D or L forms follow the SMILES beside them. *: point of attachment. Leu(3R-OH,Nα-propionyl) = CCC(=O)N[C@H](C(=O)*)[C@H](O)C(C)C; X1 = CC(C)[C@@H](O[*:3])[C@H](N[*:1])C(=O)[*:2]; X2 = CC(C)[C@H](O[*:3])[C@@H](N[*:1])C(=O)[*:2]; NMeaThr = CN[C@H](C(=O)O)[C@H](C)O; dPhLac = O=C(O)[C@H](O)Cc1ccccc1; NMeA = CN[C@@H](C)C(=O)O; NMeDha = C=C(NC)C(=O)O
System: 92.1 UM cells
Test: Gene Set Enrichment Analysis (GSEA) of RNA-Seq data
Format: cell-based, Human
[1] = gene set #CAFFAREL_RESPONSE_TO_THC_DN
[2] = gene set ALCALAY_AML_BY_NPM1_LOCALIZATION_DN
[3] = gene set BASSO_[?]_LYMPHOCYTE_NETWORK
[4] = gene set CHIANG_LIVER_CANCER_SUBCLASS_UNANNOTATED_DN
[5] = gene set CHICAS_RB1_TARGETS_GROWING
[6] = gene set CHICAS_RB1_TARGETS_SENESCENT
[7] = gene set DOUGLAS_[?]_TARGETS_UP
[8] = gene set ELVIDGE_HIF1A_TARGETS_UP
[9] = gene set FERRANDO_T_ALL_WITH_MLL_ENL_FUSION_DN
[10] = gene set FOURNIER_ACINAR_DEVELOPMENT_LATE_DN
[11] = gene set GARCIA_TARGETS_OF_FL[?]_AND_DAX1_DN
[12] = gene set GROSS_HYPOXIA_VIA_ELK3_UP
[13] = gene set GRUETZMANN_PANCREATIC_CANCER_UP
[14] = gene set IVANOVA_HEMATOPOIESIS_LATE_PROGENITOR
[15] = gene set JOHNSTONE_PARVES_TARGETS_2_DN
[16] = gene set KEGG_AMINO_SUGAR_AND_NUCLEOTIDE_SUGAR_METABOLISM
[17] = gene set KEGG_CITRATE_CYCLE_TCA_CYCLE
[18] = gene set KEGG_FC_GAMMA_[?]_MEIATED_PHAGOCYTOSIS
[19] = gene set KEGG_PATHOGENIC_ESCHERICHIA_COLI_INFECTION
[20] = gene set LASTOWSKA_NEUROBLASTOMA_COPY_NUMBER_DN
[21] = gene set MARIADASON_REGULATED_BY_HISTONE_ACETYLATION_DN
[22] = gene set MARTINEZ_RESPONSE_TO_TRABECTEDIN_DN
[23] = gene set MEINHOLD_OVARIAN_CANCER_LOW_GRADE_DN
[24] = gene set ONDER_CDH1_TARGETS_1_DN
[25] = gene set OXFORD_RALA_OR_RALB_TARGETS_UP
[26] = gene set PEART_HDAC_PROLIFERATION_CLUSTER_DN
[27] = gene set PODAR_RESPONSE_TO_ADAPHOSTIN_DN
[28] = gene set PRAMOONIAGO_SOX4_TARGETS_DN
[29] = gene set PUIFFE_INVASION_INHIBITED_BY_ASCITES_UP
[30] = gene set REACTOME_ACTIVATION_OF_CHAPERONE_GENES_BY_XBP15

Question: What does the source list for `C=C1C(=O)N[C@@H](C)C(=O)N(C)[C@@H](C)C(=O)N[C@H]([C@@H](OC(=O)[C@@H](NC(=O)CC)[C@H](O)C(C)C)C(C)C)C(=O)N(C)[C@@H]([C@H](C)OC)C(=O)O[C@H](C(C)C)[C@H](NC(C)=O)C(=O)O[C@H](Cc2ccccc2)C(=O)N1C` [FR, [(1S)-1-[(3S,6R,9S,12S,18R,21S,22R)-21-acetamido-18-benzyl-3-[(1S)-1-methoxyethyl]-4,9,10,12,16-pentamethyl-15-methylidene-2,5,8,11,14,17,20-heptaoxo-22-propan-2-yl-1,19-dioxa-4,7,10,13,16-pentazacyclodocos-6-yl]-2-methylpropyl] (2S,3R)-3-hydroxy-4-methyl-2-(propanoylamino)pentanoate] (Ac-[X1][dPhLac][NMeDha]A[NMeA][X2](Leu(3R-OH,Nα-propionyl))[NMeaThr](Me); ester 1-C)?
Answer: ES [1]: 0.6253; NES [1]: 2.134; ES [2]: 0.4726; NES [2]: 2.261; ES [3]: 0.4691; NES [3]: 2.175; ES (gene set BENPORATH_ES_1): 0.3997; NES (gene set BENPORATH_ES_1): 2.093; ES (gene set BIOCARTA_RHO_PATHWAY): 0.6245; NES (gene set BIOCARTA_RHO_PATHWAY): 2.154; ES [4]: 0.4436; NES [4]: 2.13; ES [5]: 0.4131; NES [5]: 2.057; ES [6]: 0.4124; NES [6]: 2.254; ES (gene set CSR_EARLY_UP.V1_UP): 0.4601; NES (gene set CSR_EARLY_UP.V1_UP): 2.136; ES [7]: 0.3969; NES [7]: 2.179; ES [8]: 0.5452; NES [8]: 2.195; ES [9]: 0.5186; NES [9]: 2.174; ES [10]: 0.6475; NES [10]: 2.082; ES (gene set GABP_B): 0.419; NES (gene set GABP_B): 2.063; ES [11]: 0.4628; NES [11]: 2.153; ES [12]: 0.4432; NES [12]: 2.179; ES [13]: 0.393; NES [13]: 2.047; ES [14]: 0.4037; NES [14]: 2.155; ES (gene set JIANG_VHL_TARGETS): 0.4893; NES (gene set JIANG_VHL_TARGETS): 2.171; ES [15]: 0.4128; NES [15]: 2.133; ES [16]: 0.5976; NES [16]: 2.088; ES [17]: 0.6499; NES [17]: 2.188; ES [18]: 0.5262; NES [18]: 2.154; ES [19]: 0.5693; NES [19]: 2.167; ES [20]: 0.3819; NES [20]: 2.135; ES (gene set LINSLEY_MIR16_TARGETS): 0.4327; NES (gene set LINSLEY_MIR16_TARGETS): 2.092; ES (gene set LIN_APC_TARGETS): 0.5227; NES (gene set LIN_APC_TARGETS): 2.086; ES (gene set LY_AGING_PREMATURE_DN): 0.6267; NES (gene set LY_AGING_PREMATURE_DN): 2.103; ES [21]: 0.5871; NES [21]: 2.132; ES [22]: 0.4324; NES [22]: 2.184; ES [23]: 0.7218; NES [23]: 2.197; ES (gene set NPS14_DN.V1_DN): 0.4491; NES (gene set NPS14_DN.V1_DN): 2.133; ES [24]: 0.4845; NES [24]: 2.225; ES [25]: 0.544; NES [25]: 2.089; ES (gene set PBC2_EED_UP.V1_DN): 0.4268; NES (gene set PBC2_EED_UP.V1_DN): 2.076; ES [26]: 0.4996; NES [26]: 2.059; ES (gene set PIC_DCD42_REG_PATHWAY): 0.5968; NES (gene set PIC_DCD42_REG_PATHWAY): 2.051; ES (gene set PIC_E2F_PATHWAY): 0.5204; NES (gene set PIC_E2F_PATHWAY): 2.172; ES (gene set PIC_FANCONE_PATHWAY): 0.5661; NES (gene set PIC_FANCONE_PATHWAY): 2.097; ES (gene set PIC_FCER1_PATHWAY): 0.5656; NES (gene set PIC_FCER1_PATHWAY): 2.102; ES (gene set PID_PDGFRB_PATHWAY): 0.4862; NES (gene set PID_PDGFRB_PATHWAY): 2.232; ES (gene set PIO_AURORA_A_PATHWAY): 0.6657; NES (gene set PIO_AURORA_A_PATHWAY): 2.186; ES (gene set PIO_TCR_PATHWAY): 0.6; NES (gene set PIO_TCR_PATHWAY): 2.184; ES [27]: 0.6921; NES [27]: 2.117; ES [28]: 0.5652; NES [28]: 2.158; ES [29]: 0.5104; NES [29]: 2.126; ES (gene set RACTOME_IMMUNE_SYSTEM): 0.3664; NES (gene set RACTOME_IMMUNE_SYSTEM): 2.063; ES (gene set RB_P107_0N, L1_UP): 0.4941; NES (gene set RB_P107_0N, L1_UP): 2.216; ES [30]: 0.5859; NES [30]: 2.116

Source: patent US20230130103A1, “TARGETED PHARMACOLOGICAL THERAPEUTICS IN UVEAL MELANOMA” (Washington University, priority 2017, published 2023)
